Values of other authors in PMC6986806 (Nature chemical biology, 2020).

Test system: GluN1/GluN2D

COc1ccc(OCC2c3cc(OC)c(OC)cc3CCN2C(=O)c2cccc(Cl)c2)cc1 (stereo not shown) [CIQ]
effect on GluN1/GluN2D unitary current: no effect
